The values below come from patent publication US20230263825A1, “ANTI-CANCER ACTIVITY OF PERBORATE SALTS” (priority 2020, published 2023).

For assay [1], the system named is PSN-1 (a pancreatic adenocarcinoma cell line). Put plainly: MTS cytotoxicity assay, single agents and combinations. In kind it is cell-based. The following applies: Homo sapiens, PSN1, PSN-1, chemotherapeutic agent alone; read-out: EC50 concentration. How it is done: (§1) An MTS reduction (MTS (3-(4,5-dimethylthiazol-2-yl)-5-(3-carboxymethoxyphenyl)-2-(4-sulfophenyl)-2H-tetrazolium) assay) was conducted to analyze the cytotoxic effect of sodium perborate tetrahydrate on lung, chordoma and pancreatic cells and normal cells. In this method, cell viability is determined via the activity of mitochondrial dehydrogenase enzyme, which reduces the tetrazolium dye MTS to its […] formazan (absorbance maximum of 490 nm in PBS).
(§2) Cells were counted and seeded in 96-well culture dishes. […] The positive control comprised 20% Dimethyl Sulfoxide and the negative control comprised complete growth media. Seeding densities were as follows: DMS114: 20.000 cells/well; MRC5: 5.000 cells/well; CH22: 2.000 cells/well; JHC7, UM-Chor1, MUG-Chor1, UCH1 and NPH: 5.000 cells/well; PSN1: 10.000 cells/well; BxPC3 and ASPC: 7.500 cells/well. The effect of sodium perborate tetrahydrate on cell viability was measured as follows. The cell culture medium was discarded and 100 μl of MTS solution (10% glucose solution and 1% MTS-PMS solution in PBS) was added into each well. After 1 hour incubation in a humidified incubator, an absorbance reading was taken to determine mitochondrial dehydrogenase activity and cell survival was calculated relative to the negative control.

Assay [2] has as its system DMS114 cells (small cell lung cancer cells). Put plainly: MTS cytotoxicity assay. In kind it is cell-based. The following applies: DMS114. How it is done: as §1, §2

pEC50: −log10 of the molar value. Converted amounts (≈) assume the structure as drawn.

Regarding `O=c1[nH]cc(F)c(=O)[nH]1` [5-Fluorouracil, reference compound], the pEC50 in assay [1] was 4.89. Turning to `OB(O)O` [boric acid, reference compound], the EC50 in assay [2] (Homo sapiens, DMS-114, read-out: EC50 (dose that kills 50% of cells)) was determined as 1000 µg/mL (≈ 16.2 mM). For the molecule “sodium pentaborate pentahydrate [reference compound]”, in assay [2], the “EC50 (dose that kills 50% of cells)” value is 1,250 μg/mL.
